Data published in patent US12227743B2, “Pharmaceutical composition for treatment of diseases associated with upregulated periostin expression or periostin splice variant switching” (Osaka University, priority 2018, dated 2025).

Experiments:
[1] = test system: human breast cancer cell line BT549; assay: ATP assay (CellTiter-Glo, ATP production) in transfected BT549 cells with or without paclitaxel; type: cell-based; settings: 72 hours
Protocol: (§1) Periostin-highly-expressing human breast cancer cell line BT549 was cultured in RPMI 1640 with 10% FBS and 1% penicillin/streptomycin. The BT549 cells are a triple-negative breast cancer cell line, which is negative for estrogen receptor, progesterone receptor, and human epidermal growth factor receptor 2 (HER2).
(§2) The BT549 cells were transfected with the human exon 17-skipping antisense oligonucleotide or the human exon 21-skipping antisense oligonucleotide as described in Example 1. The cells were subsequently seeded in an amount of 5×10^3 cells/well on a 96-well plate. Similarly, the BT549 cells were transfected with the control antisense oligonucleotide and seeded on a 96-well plate as the control group. On the day after seeding, paclitaxel was added at a final concentration of 10 nM to the wells. After 72 hours of culture, cell proliferation (number of viable cells) and ATP-producing capacity (ATP quantification) were evaluated. The number of viable cells was measured using the CellTiter 96 AQueous One Solution Cell Proliferation Assay (trade name, Promega, #G3582) (MTS assay). The amount of ATP was measured using the CellTiter-Glo Luminescent Cell Viability Assay (trade name, Promega, #G7570) (ATP assay). The Tukey-Kramer test was used for intergroup comparison.

[2] = test system: downstream molecules of TGF-β-induced signaling; assay: Quantitative PCR of downstream molecules of TGF-β-induced signaling in hRPTEC transfected with antisense oligonucleotide; type: cell-based, human; settings: vs TGF-β (+) Control AS, FIG. 15
Protocol: Human renal proximal tubular epithelial cells (hRPTEC, ATCC No. PCS-400-010) were cultured in a renal epithelial cell basal medium (REBM, Cambrex Bio Science Inc.) with 10% fetal bovine serum (FBS) and 1% penicillin/streptomycin. The cells were transfected with the human exon 17-skipping antisense oligonucleotide (Pn exon 17 AS) or the control antisense oligonucleotide (Control AS) as described in Example 1. At 24 hours after transfection, the medium was replaced by a serum-free medium. At 24 hours thereafter, human TGF-β1 (PeproTech) was added to the medium, and culture was continued for additional 24 hours. After cell culture, total RNA was extracted from the cells and subjected to cDNA synthesis (see Reference Example 1). The resulting cDNA was subjected to quantitative PCR using the primers shown below to measure the expression level of the splice variant Pn1 (containing exons 17 and 21, see FIG. 1) (n=3 per group) and the mRNA expression levels of the downstream molecules of TGF-β-induced signaling (αSMA, Snail 1, TNFα, CTGF, vimentin) (n=4 per group). Statistical analysis was performed by analysis of variance and Tukey-Kramer adjustment using the JMP statistical software package.

[3] = test system: human breast cancer cell line BT549; assay: MTS assay (number of viable cells) in transfected BT549 cells with or without paclitaxel; type: cell-based; settings: 72 hours
Protocol: as §1, §2

[4] = test system: Luciferase-expressing mouse breast cancer (4T1-Luc) cells; assay: Pulmonary metastasis (lung luciferase activity) in nude mice after tail vein injection of transfected 4T1-Luc cells; type: in vivo; settings: 5×10^5 transfected 4T1-Luc cells via tail vein, 5 days after injection, vs control antisense, FIG. 16
Protocol: Luciferase-expressing mouse breast cancer (4T1-Luc) cells were cultured in DMEM with 10% FBS and 1% penicillin/streptomycin. A morpholino antisense oligonucleotide designed to induce skipping of exon 17 of a mouse periostin gene was purchased from Funakoshi Co., Ltd. The nucleotide sequence of the antisense oligonucleotide is as follows.
The mouse exon 17-skipping antisense oligonucleotide targets the region of positions 21118 to 21142 of the mouse periostin gene represented by SEQ ID NO: 2.
The 4T1-Luc cells were transfected with the mouse exon 17-skipping antisense oligonucleotide or the control antisense oligonucleotide (SEQ ID NO: 6) as described in Example 1. After 2 days of culture, the cells were detached, and cell suspension was prepared. The cell suspension (containing 5×10^5 4T1-Luc cells per mouse) was injected via the tail vein to nude mice (BALB/c-nu, female, 8 to 10 weeks old) (n=3 per group). At 5 days after injection, the lung was excised from each mouse under anesthesia and homogenized. The homogenate was subjected to the measurement of luciferase activity using the Dual-Luciferase Reporter Assay System (Promega, #E1910). The Mann Whitney test (MWU) was used for comparison between the two groups.

[5] = BT549, no paclitaxel, vs control antisense transfected cells, FIG. 18A
[6] = BT549, paclitaxel 10 nM, vs control antisense transfected cells, FIG. 18B
[7] = BT549, paclitaxel 10 nM, vs control antisense transfected cells, FIG. 17B

Row | Substance | ATP production [1, 5] | ATP production [1, 6] | CTGF mRNA expression, TGF-β induction [2] | Snail 1 mRNA expression, TGF-β induction [2] | TNFα mRNA expression, TGF-β induction [2] | Vimentin mRNA expression, TGF-β induction [2] | αSMA mRNA expression, TGF-β induction [2] | cell proliferation (number of viable cells, MTS) [3, 7] | ATP production ([1]; BT549, no paclitaxel, vs exon 17-skipping antisense transfected cells, FIG. 18A) | ATP production ([1]; BT549, paclitaxel 10 nM, vs exon 17-skipping antisense transfected cells, FIG. 18B) | cell proliferation (number of viable cells, MTS) ([3]; BT549, no paclitaxel, vs exon 17-skipping and control antisense transfected cells, FIG. 17A) | luciferase activity in lung homogenate (pulmonary metastasis) [4]
1 | exon 17-skipping antisense oligonucleotide: Morpholino antisense oligonucleotide 5′-CCATGTATAACATTGATTTTTACCTTCAGT-3′ designed to induce skipping of exon 17 of a human periostin gene (all phosphorodiamidate morpholino (PMO)) | significant reduction | significant reduction | significantly suppressed | significantly suppressed | significantly suppressed | significantly suppressed | significantly suppressed | significant reduction |  |  |  | 
2 | exon 21-skipping antisense oligonucleotide: Morpholino antisense oligonucleotide 5′-TTGTTGTCCTTTTACTAACCTCCCT-3′ designed to induce skipping of exon 21 of a human periostin gene (all phosphorodiamidate morpholino (PMO)) | significant reduction | significant reduction |  |  |  |  |  | significant reduction | significant reduction | significant reduction | significant reduction | 
3 | mouse exon 17-skipping antisense oligonucleotide: Morpholino antisense oligonucleotide 5′-TGCTGAAAACATAGAAAGTGGAGCA-3′ designed to induce skipping of exon 17 of a mouse periostin gene (all phosphorodiamidate morpholino (PMO)) |  |  |  |  |  |  |  |  |  |  |  | very low
